Measurements as given in US20230221325A1, “SOLUBLE CD28 LEVELS AFTER IMMUNOTHERAPY” (BIOND BIOLOGICS LTD., priority 2019, published 2023).

Key:
[1] = system: SEB stimulated human PBMC; assay: SEB activation of PBMCs for the generation of soluble CD28 (ELISA); type: cell-based
melanoma patients = assay: Survival of melanoma patients on anti-PD1 therapy by sCD28 level before therapy; type: in vivo, human
Protocol: To further understand the impact of sCD28 levels on cancer progression during immunotherapy, more than 100 serum samples from melanoma patients prior to initiation of anti-PD1 therapy (Nivolumab, NCT01176461) were tested for sCD28 levels by ELISA. Survival was monitored throughout therapy and a survival function was plotted comparing subjects with high and low levels of sCD28 before therapy (FIG. 1).

CMV-stimulated PBMC = assay: CMV activation of PBMCs for the generation of soluble CD28 (ELISA); type: cell-based, human; conditions: 7 days CMV stimulation, with anti-PD-1 (Keytruda) 5 μg/mL, inhibitor 1 μM

## Keytruda: Anti-PD-1 (Keytruda, Merck)
[1]; PBMCs from two healthy donors, SEB for 8 days, anti-PD-1 5 μg/mL vs isotype control
  sCD28 in the media (increase induced by SEB): enhanced
[1]; days 6-8, vs isotype control
  sCD28 increase caused by the immunotherapy, significance: statistically significant

## Nivolumab: anti-PD1 therapy (NCT01176461)
Melanoma patients; subjects with high levels of sCD28 before therapy
  median survival: 514 days
Melanoma patients; subjects with low levels of sCD28 (below 2 ng/mL) before therapy
  median survival: 659 days

## CNC(=O)[C@@H](NC(=O)[C@H](CCCc1ccccc1)[C@H](C)N(O)C=O)C(C)(C)C [GI254023X]
CMV-stimulated PBMC
  sCD28 increase caused by anti-PD-1: abrogated the sCD28 increase caused by immunotherapy
